From patent US11680047B2, “Enhanced erythropoiesis and iron metabolism” (FibroGen, Inc., priority 2003, dated 2023)

Assays:
NRAMP2 = assay: Intestinal NRAMP2 mRNA in rats of ACD Series 2 (microarray); assay type: in vivo, rat
Method: (§1) At week 6 following administration of compound A in anemic animals (40 mg/kg, twice a week), microarray analysis was performed to examine expression of genes encoding proteins involved with iron transport and absorption in intestine. Microarray analysis was performed using methods described above, using The Rat Genome 230A array (Affymetirx), which represents all sequence in the Rat Unigene database build 99 (National Center for Biotechnology Information, Bethesda, Md.), including approximately 4,699 well-characterized rat genes and approximately 10,467 EST sequences and approximately 700 non-EST sequences.

sproutin = assay: Intestinal sproutin mRNA in rats of ACD Series 2 (microarray); assay type: in vivo, rat
Method: as §1

Ceruloplasmin (CP) = assay: Microarray gene expression in Hep3B cells: ceruloplasmin; assay type: cell-based, human; conditions: 2 μM
Method: (§2) Hep3B cells (ATCC No. HB-8064) were grown in DMEM containing 8% fetal bovine serum. Hep3B cells were seeded into 6-well culture dishes at ˜500,000 cells per well. After 8 hours, the media was changed to DMEM containing 0.5% fetal bovine serum and the cells were incubated for an additional 16 hours. Compound B or compound D was added to the cells (2 μM final concentration) and the cells were incubated for various times. Control cells (no compound treatment, addition of DMSO alone) were harvested at 0, 6 and 48 hours. Harvested cells were assessed for cell viability (GUAVA), or added to RNA extraction buffer (RNeasy, Qiagen) and stored at −20° C. for subsequent RNA purification. Replicate microarrays were generated using RNA isolated from replicate experiments conducted on different days. Total RNA was isolated from cells using the RNeasy kit (Qiagen).
(§3) RNA was precipitated in 0.3 M sodium acetate (pH 5.2), 50 ng/ml glycogen, and 2.5 volumes of ethanol for one hour at −20° C. Samples were centrifuged and pellets were washed with cold 80% ethanol, dried, and resuspend in water. Double stranded cDNA was synthesized using a T7-(dT)24 first strand primer (Affymetrix, Inc., Santa Clara Calif.) and the SUPERSCRIPT CHOICE system (Invitrogen) according to the manufacturer's instructions. The final cDNA was extracted with an equal volume of 25:24:1 phenol:chloroform:isoamyl alcohol using a PHASE LOCK GEL insert (Brinkman, Inc., Westbury N.Y.). The aqueous phase was collected and cDNA was precipitated using 0.5 volumes of 7.5 M ammonium acetate and 2.5 volumes of ethanol. Alternatively, cDNA was purified using the GENECHIP sample cleanup module (Affymetrix) according to the manufacturer's instructions.
(§4) Biotin-labeled cRNA was synthesized from the cDNA in an in vitro […] (IVT) reaction using a BIOARRAY HighYield RNA transcript labeling kit (Enzo Diagnostics, Inc., Farmingdale N.Y.) according to the manufacturer's instructions. Final labeled product was purified and fragmented using the GENECHIP sample cleanup module (Affymetrix) according to the manufacturer's instructions.
(§5) Hybridization cocktail was prepared by bringing […] probe to […] in 1× hybridization buffer (100 mM MES, 1 M [Na^+], 20 mM EDTA, 0.01% Tween 20), 100 µg/ml herring sperm DNA, 500 µg/ml acetylated BSA, 0.03 nM contol oligo B2 (Affymetrix), and 1×GENECHIP eukaryotic hybridization control (Affymetrix). The cocktail was sequentially incubated at 99° C. for 5 minutes and 45° C. for 5 minutes, and then centrifuged for 5 minutes. The Human Genome U133A array (Affymetrix) was brought to room temperature and then prehybridized with 1× hybridization buffer at 45° C. for 10 minutes with rotation. The buffer was then replaced with […] hybridization cocktail and the array was hybridized for 16 hours at 45° C. at 60 rpm with counter balance. Following hybridization, arrays were washed once with 6×SSPE, 0.1% Tween 20, and then washed and stained using R-phycoerythrin-conjugated streptavidin (Molecular Probes, Eugene Oreg.), goat anti-streptavidin antibody (Vector Laboratories, Burlingame Calif.), and a GENECHIP Fluidics Station 400 instrument (Affymetrix) according to the manufacturer's micro_1v1 protocol (Affymetrix). Arrays were analyzed using a GENEARRAY scanner (Affymetrix) and Microarray Suite software (Affymetrix).
(§6) The Human Genome U133A array (Affymetrix) represents all sequences in the Human Unigene database build 133 (National Center for Biotechnology Information, Bethesda Md.), including approximately 14,500 well-characterized human genes.
(§7) RNA quality was monitored by capillary electrophoresis (Agilent Bioanalyzer). Hybridization cocktails were prepared as described (Affymetrix), and hybridized to Affymetrix human U133A arrays containing 22,283 probe sets. Array performance was analyzed with Affymetrix MicroArray Suite (MAS) software and individual probe sets were assigned “present”, “marginal, and “absent” calls according to software defaults. […]

[1] = system: Transferrin Receptor (TFR2); assay: Microarray gene expression in Hep3B cells: transferrin receptor 2; assay type: cell-based, human; conditions: 2 μM
Method: as §2, §3, §4, §5, §6, §7

E-selectin [2] = assay: Cell surface E-selectin (cell-based ELISA) in HUVEC pretreated with compound, then cytokines; set-up: species or system human; conditions: HUVEC pretreated 24 hours
Method: HUVEC were treated with vehicle control or various concentrations of compound B or compound C for 24 hours. Cells were washed and then stimulated with either 1 ng/ml TNF-α, 1 ng/ml IL-1β, or a combination of 1 ng/ml each of TNF-α, IL-1β, and IFN-γ for 4 hours. Cell surface expression of E-selectin was measured by cell-based ELISA.

E-selectin [3] = assay: IL-1β induced E-selectin expression in HUVEC; assay type: cell-based, human; conditions: 1 ng/ml IL-1β, 1 day
Method: To investigate the effect of HIF prolyl hydroxylase inhibition on IL-1β induced E-selectin expression, HUVECs were stimulated with 1 ng/ml IL-1β in the absence or presence of various concentrations of compound B or compound C for 1 day. E-selectin expression was then measured.

[4] = anemic rats, 40 mg/kg twice a week, week 6

O=C(O)CNC(=O)c1nc(Cl)c2ccccc2c1O [Compound A, [(1-Chloro-4-hydroxy-isoquinoline-3-carbonyl)-amino]-acetic acid]
intestinal expression of NRAMP2 (NRAMP2; [4]): increased expression of both NRAMP2 and sproutin in intestine
intestinal expression of mRNA for NRAMP2 (NRAMP2; control rats): increased intestinal expression of mRNA for NRAMP2
intestinal expression of sproutin (sproutin; [4]): increased expression of both NRAMP2 and sproutin in intestine
intestinal expression of mRNA for sproutin (sproutin; control rats): increased intestinal expression

O=C(O)CNC(=O)c1ncc2cc(Oc3ccccc3)ccc2c1O [Compound B, [(4-Hydroxy-7-phenoxy-isoquinoline-3-carbonyl)-amino]-acetic acid]
Ceruloplasmin (CP) fold-increase in mRNA levels above control, first data point (Ceruloplasmin (CP); 1 hr): 1.142 fold
Ceruloplasmin (CP) fold-increase in mRNA levels above control, second data point (Ceruloplasmin (CP); 1 hr): 0.946 fold
Ceruloplasmin (CP) fold-increase in mRNA levels above control, first data point (Ceruloplasmin (CP); 3 hr): 1.123 fold
Ceruloplasmin (CP) fold-increase in mRNA levels above control, second data point (Ceruloplasmin (CP); 3 hr): 0.955 fold
Ceruloplasmin (CP) fold-increase in mRNA levels above control, first data point (Ceruloplasmin (CP); 6 hr): 1.555 fold
Ceruloplasmin (CP) fold-increase in mRNA levels above control, second data point (Ceruloplasmin (CP); 6 hr): 1.103 fold
Ceruloplasmin (CP) fold-increase in mRNA levels above control, first data point (Ceruloplasmin (CP); 12 hr): 2.366 fold
Ceruloplasmin (CP) fold-increase in mRNA levels above control, second data point (Ceruloplasmin (CP); 12 hr): 2.507 fold
Ceruloplasmin (CP) fold-increase in mRNA levels above control, first data point (Ceruloplasmin (CP); 24 hr): 5.136 fold
Ceruloplasmin (CP) fold-increase in mRNA levels above control, second data point (Ceruloplasmin (CP); 24 hr): 4.909 fold
Ceruloplasmin (CP) fold-increase in mRNA levels above control, first data point (Ceruloplasmin (CP); 48 hr): 5.82 fold
Ceruloplasmin (CP) fold-increase in mRNA levels above control, second data point (Ceruloplasmin (CP); 48 hr): 4.678 fold
Transferrin Receptor (TFR2) fold-increase in mRNA levels above control ([1]; 1 hr): 0.575 fold
Transferrin Receptor (TFR2) fold-increase in mRNA levels above control ([1]; 3 hr): 0.558 fold
Transferrin Receptor (TFR2) fold-increase in mRNA levels above control ([1]; 6 hr): 0.822 fold
Transferrin Receptor (TFR2) fold-increase in mRNA levels above control ([1]; 12 hr): 1.253 fold
Transferrin Receptor (TFR2) fold-increase in mRNA levels above control ([1]; 24 hr): 2.522 fold
Transferrin Receptor (TFR2) fold-increase in mRNA levels above control ([1]; 48 hr): 4.169 fold
induction of cell surface E-selectin expression (E-selectin [2]; then 1 ng/ml TNF-α or 1 ng/ml IL-1β for 4 hours): inhibited the induction of cell surface E-selectin expression
cell surface E-selectin expression (E-selectin [2]; then TNF-α, IL-1β and IFN-γ, 1 ng/ml each, 4 hours): decreased E-selectin expression
inhibition of IL-1β induced E-selectin expression (E-selectin [3]): dose-dependent inhibition of IL-1β induced E-selectin expression
